According to US4205080A, “2,3-Dihydro benzofuran carboxamides” (Shell Oil Company, priority 1979, dated 1980):

Test system: swine adipose tissue
Test: inhibition of lipogenesis (lipid synthesis from radioactive glucose) in slices of swine adipose tissue
Format: cell-based
Conditions: 100 micrograms per milliliter test compound; 37° C., 2 hours; glucose-U^14 C; 300 microunits of insulin; 5% DMSO; triplicate
Text: The manner in which they cause this effect is not known with certainty; it is believed that they interfere with the synthesis of fatty acids in the tissues. Their effectiveness for this purpose has been ascertained by immersing samples of swine adipose tissue in a liquid medium containing radioactive glucose and the test chemical for a period of time, then isolating the lipid from the treated tissue and determining the up-take of the radioactive carbon by means of scintillation counting techniques. These tests were conducted in swine adipose tissue because in swine, the primary site of lipogenesis--i.e., fatty acid synthesis--appears to be adipose tissue.
Described in more detail, the tests were conducted according to the following general procedure:
150 milligrams of slices of swine adipose tissue were incubated at 37° C. for 2 hours with shaking in 3 milliliters of Krebs-Ringer bicarbonate solution containing one-half of the normal calcium ion concentration, 60 micromoles of glucose, 0.5 micro-Curie of glucose-U^14 C, and 300 microunits of insulin, and 5% dimethyl sulfoxide (DMSO). The test compound was added as a solution or suspension in DMSO and was present as a concentration of 100 micrograms per milliliter of incubation mixture.
The incubation was terminated by addition of 0.25 milliliter of 1 N sulfuric acid. The resulting mixture was extracted with a total of 25 milliliters of chloroform:methanol (2:1, v/v). The extracts were washed according to Folch et al. (J. Biol. Chem., 226, 497-509, (1957)), air dried, and counted in a liquid scintillation counter with 15 milliliters of counting fluid (two parts toluene containing 0.4% w/v New England Nuclear Omnifluor: 1 part Triton X-100). The tests were conducted in triplicate and were accompanied by control tests in which all ingredients,proportions and conditions were the same except that no test compound was included. From the data obtained were calculated the percent inhibition of lipid synthesis by the test compound. The data obtained are reported as the percent inhibition of lipogenesis compared to the results obtained in the control tests wherein only the test compound was omitted.

| SMILES | Percent Inhibition (of lipogenesis compared to control tests) |
| --- | --- |
| C=CCNC(=O)C1Cc2cc(-c3ccccc3)ccc2O1 (stereo not shown) [Compound 1, 2,3-dihydro-5-phenyl-N-(2-propenyl)-2-benzofurancarboxamide] | 59% |
| C=CCNC(=O)C1Cc2cc(C(C)CC)ccc2O1 (stereo not shown) [Compound 2] | 66% |
| C=CCNC(=O)C1Cc2cc(C3CCCCC3)ccc2O1 (stereo not shown) [Compound 3] | 43% |
| C=CCNC(=O)C1Cc2cc(Cc3ccccc3)ccc2O1 (stereo not shown) [Compound 4] | 64% |
| C=CCNC(=O)C1Cc2c(Oc3ccccc3)cccc2O1 (stereo not shown) [Compound 5] | 77% |
| C=CCNC(=O)C1Cc2cc(-c3ccc(C(C)O)cc3)ccc2O1 (stereo not shown) [Compound 6, 2,3-Dihydro-5-(4-(1-hydroxyethyl)phenyl)-N-(2-propenyl)-2-benzofurancarboxamide] | 40% |
| C=CCNC(=O)C1Cc2cc(-c3ccc(NC(C)=O)cc3)ccc2O1 (stereo not shown) [Compound 7, 5-(4-(Acetylamino)phenyl)-2,3-dihydro-N-(2-propenyl)-2-benzofurancarboxamide] | 76% |
